Measured values: patent US20200024662A1, “METHODS FOR TREATING OPIOID ADDICTION” (ASSUREX HEALTH, INC., priority 2016, published 2020)
“Also recorded” adds a separate entry of the source.

Experiments:
[1] = test system: patients treated with Methadone in the START trial; assay: Completion of 24-week Methadone treatment, START samples of Example 2; assay type: in vivo, human; conditions: 24-week treatment
Experimental: (§1) Samples from patients treated with Methadone in the START trial described in Example 1 above were used (N=352). […] Each model was tested as described below against Sample 1, Sample 2 and/or the Full Sample.

[2] = test system: patients treated with Methadone in the START trial; assay: PK/PD Model 1 binning vs Methadone completion; assay type: in vivo, human
Experimental: (§2) For the model analyses, models were developed that sort patients into one of three categories, Green (‘G’) Yellow (‘Y’) or Red (‘R’). Patients determined to be high risk for non-completion by the model are placed into the Red Bin. Patients at intermediate risk of non-completion are placed in the Yellow Bin, and for this study, Yellow Bin patients are treated the same as patients found to be at Low Risk of non-completion, or those who are placed in the Green Bin. Thus, the Green and Yellow bins are combined for analysis.
Three separate PK/PD Models were generated by combining the PK model with each of the three PD models separately as follows. For each PKPD model, the corresponding PD risk score was added to the raw PK score (bin). A total PD risk score that was negative, represents a reduction of the baseline PK score, while a total PD risk score that was positive represented an increase in the baseline PK score.
as §1
(§3) Pearson's product moment, Chi-square with Yates correction were calculated. Diagnostic tests, odds ratios, Pearson's product moment, Chi-square with Yates correction were calculated using MEDCALC and R version 3.3.1.
For PK/PD Model 1, final score was the sum of the PD 1 score and the PK score, where PK green=1, PK Yellow=2 and PK red=3. Bins were assigned according to Table 61.

[3] = test system: patients treated with Methadone in the START trial; assay: Baseline model (GeneSight Analgesic test) binning vs Methadone completion; assay type: in vivo, human; conditions: Full Sample
Experimental: as §2
The GeneSight Analgesic test (commercial test available from Assurex Health, Inc.) was used as a baseline to determine High Risk patients entering methadone maintenance therapy. Furthremore, the following PK, PD and PK/PD models were evaluated.
as §1, §3

[4] = test system: patients treated with Methadone in the START trial; assay: PD Model 3 binning vs Methadone completion; assay type: in vivo, human
Experimental: as §2
PD Model 3: The completion percentage was calculated for each genotype. For each genotype, the raw percent difference of completion compared to the mean of completion was assigned as the genotype's PD score. The patient's PD risk was calculated by summing the total genotype risk score. Bins were assigned over the range of scores that maximized completers in Green and Yellow bins and non-completers in the Red bin.
as §1, §3

[5] = test system: patients treated with Methadone in the START trial; assay: PD Model 2 binning vs Methadone completion; assay type: in vivo, human
Experimental: as §2
PD Model 2: The completion percentage was calculated for each genotype. For each gene and genotype completion percentage, the means and standard deviations were calculated. For each genotype that was one standard deviation away from the mean, towards higher completion, a score of 1 was given. For each genotype that was one standard deviation away from the mean, towards lower completion, a score of −1 was given. For genotypes that were not one standard deviation away, the raw percent difference from the mean was observed as the score. Each score was then normalized across each gene using a scale from 0.2 to 1. Each value was normalized across all genes by converting the percentages on a plus/minus scale of 0, 0.2, 0.5, and 1 according to Table 17. Values that were greater than or equal to 1 SD away were automatically scored as a 1 or −1. The conversion of genotypes to scores was as shown in Tabl 18. The patient's PD risk was calculated by summing the total genotype risk score. Bins were assigned over the range of scores that maximized completers in Green and Yellow bins and non-completers in the Red bin.
as §1, §3

[6] = test system: START trial patients; assay: Single-gene logistic regression of non-completion of 24-week opioid agonist replacement therapy (START trial)
[7] = PK/PD Model 1, Full Sample, Green bin
[8] = PK/PD Model 1, Full Sample, Red bin
[9] = PK/PD Model 1, Full Sample, Yellow bin
[10] = PK/PD Model 1, Sample 1, Green bin
[11] = PK/PD Model 1, Sample 1, Red bin
[12] = PK/PD Model 1, Sample 1, Yellow bin
[13] = PK/PD Model 1, Sample 2, Green bin
[14] = PK/PD Model 1, Sample 2, Red bin
[15] = PK/PD Model 1, Sample 2, Yellow bin
[16] = PD Model 3, Full Sample, Green bin, Risk Score −2.3 to −0.3
[17] = PD Model 3, Full Sample, Red bin, Risk Score 1+
[18] = PD Model 3, Full Sample, Yellow bin, Risk Score −0.2 to 0.9
[19] = PD Model 3, Sample 1, Green bin, Risk Score −1.8 to −0.3
[20] = PD Model 3, Sample 1, Red bin, Risk Score 1 to 2.1
[21] = PD Model 3, Sample 1, Yellow bin, Risk Score −0.2 to 0.9
[22] = PD Model 3, Sample 2, Green bin, Risk Score −2.1 to −0.7
[23] = PD Model 3, Sample 2, Red bin, Risk Score 0.2 to 2
[24] = PD Model 3, Sample 2, Yellow bin, Risk Score −0.6 to 0.1
[25] = PD Model 2, Full Sample, Green bin, Risk Score −4.2 to −0.2
[26] = PD Model 2, Full Sample, Red bin, Risk Score 1.3+
[27] = PD Model 2, Full Sample, Yellow bin, Risk Score 0.1 to 1
[28] = PD Model 2, Sample 1, Green bin, Risk Score −3.3 to −0.2
[29] = PD Model 2, Sample 1, Red bin, Risk Score 1.3 to 3.7
[30] = PD Model 2, Sample 1, Yellow bin, Risk Score 0.2 to 1
[31] = PD Model 2, Sample 2, Green bin, Risk Score −3.2 to −1
[32] = PD Model 2, Sample 2, Red bin, Risk Score 0.5 to 2.7
[33] = PD Model 2, Sample 2, Yellow bin, Risk Score −0.9 to 0.3
[34] = Table 4.3, 24-week treatment, logistic regression with dose category

CCC(=O)C(CC(C)N(C)C)(c1ccccc1)c1ccccc1 (centres unmarked) [Methadone, methadone]
Completers ([1]; Sample 1 (N=176)): 156 | non-completers ([1]; Sample 1 (N=176)): 20 | Completers ([1]; Sample 2 (N=176)): 159 | non-completers ([1]; Sample 2 (N=176)): 17 | Completers [2, 7]: 262 | Non Completers [2, 7]: 23 | Completers [2, 8]: 2 | Non Completers [2, 8]: 6 | Completers [2, 9]: 43 | Non Completers [2, 9]: 16 | Completers [2, 10]: 137 | Non Completers [2, 10]: 11 | Completers [2, 11]: 2 | Non Completers [2, 11]: 3 | Completers [2, 12]: 17 | Non Completers [2, 12]: 6 | Completers [2, 13]: 134 | Non Completers [2, 13]: 10 | Completers [2, 14]: 0 | Non Completers [2, 14]: 2 | Completers [2, 15]: 25 | Non Completers [2, 15]: 5 | Completers ([3]; Green bin): 170 | Non Completers ([3]; Green bin): 19 | Completers ([3]; Red bin): 28 | Non Completers ([3]; Red bin): 3 | Completers ([3]; Yellow bin): 109 | Non Completers ([3]; Yellow bin): 23 | Completers [4, 16]: 137 | Non Completers [4, 16]: 9 | Completers [4, 17]: 39 | Non Completers [4, 17]: 10 | Completers [4, 18]: 131 | Non Completers [4, 18]: 26 | Completers [4, 19]: 74 | Non Completers [4, 19]: 2 | Completers [4, 20]: 20 | Non Completers [4, 20]: 7 | Completers [4, 21]: 62 | Non Completers [4, 21]: 11 | Completers [4, 22]: 77 | Non Completers [4, 22]: 2 | Completers [4, 23]: 29 | Non Completers [4, 23]: 9 | Completers [4, 24]: 53 | Non Completers [4, 24]: 6 | Completers [5, 25]: 101 | Non Completers [5, 25]: 7 | Completers [5, 26]: 86 | Non Completers [5, 26]: 20 | Completers [5, 27]: 120 | Non Completers [5, 27]: 18 | Completers [5, 28]: 58 | Non Completers [5, 28]: 3 | Completers [5, 29]: 43 | Non Completers [5, 29]: 12 | Completers [5, 30]: 55 | Non Completers [5, 30]: 5 | Completers [5, 31]: 70 | Non Completers [5, 31]: 2 | Completers [5, 32]: 32 | Non Completers [5, 32]: 9 | Completers [5, 33]: 57 | Non Completers [5, 33]: 6 | OR (95% CI) of non-completion, COMT VAL/MET vs MET/MET [6, 34]: 2.76 (0.99-7.68) | OR (95% CI) of non-completion, COMT VAL/VAL vs MET/MET [6, 34]: 3.16 (1.07-9.31) | OR (95% CI) of non-completion, COMT VAL/VAL vs VAL/MET [6, 34]: 1.14 (0.56-2.34) | OR (95% CI) of non-completion, CYP3A4 EM vs IM + PM [6, 34]: 1.66 (0.48-5.77) | OR (95% CI) of non-completion, HTR2A Intermediate vs Normal [6, 34]: 0.58 (0.25-1.36) | OR (95% CI) of non-completion, HTR2A Intermediate vs Reduced [6, 34]: 0.73 (0.35-1.52) | OR (95% CI) of non-completion, HTR2A Normal vs Reduced [6, 34]: 1.26 (0.51-3.09) | OR (95% CI) of non-completion, SLC6A4 L/L vs S/S [6, 34]: 0.54 (0.23-1.23) | OR (95% CI) of non-completion, SLC6A4 L/S vs L/L [6, 34]: 0.77 (0.36-1.65) | OR (95% CI) of non-completion, SLC6A4 L/S vs S/S [6, 34]: 0.41 (0.19-0.91) | times more likely not to complete the 24-week treatment, SLC6A4 reduced phenotype compared to intermediate phenotype ([6]; […]): 2.41 times | effect of dose level (Dose-bin-category covariate) on non-completion ([6]; significance at p-value ≤0.05 in the single-gene logistic regression models): significant for all eleven genes; also recorded: played an important role | times more likely not to complete the 24-week treatment, COMT high phenotype compared to reduced phenotype ([6]; text statement of odds ratio): 3.16 times
